Test results: the NIST ThermoML archive (doi:10.1016/j.jct.2014.09.020)
± gives the expanded uncertainty stated by the source.

Experiment: xn = mol fraction of the nth substance listed
Conditions: Liquid; for speed of sound: Frequency=4 MHz, Single path-length method; for mass density: Vibrating tube method

c1ccc2c(c1)CCCC2 [1,2,3,4-tetrahydronaphthalene] + CCCCCCCCCCCCCCCC
Conditions	mass density, 100 kPa [kg/m3]	speed of sound, 100 kPa [m/s]	speed of sound, 5000 kPa [m/s]	speed of sound, 10000 kPa [m/s]	speed of sound, 15000 kPa [m/s]	speed of sound, 20000 kPa [m/s]	speed of sound, 25000 kPa [m/s]
313.15 K, x2 = 0	952.93 ± 1.2	1413 ± 2	1434 ± 3	1455 ± 3	1475 ± 3	1495 ± 3	1513 ± 3
313.15 K, x2 = 0.2491	871.85 ± 1.1	1346 ± 2	1371 ± 2	1395 ± 2	1418 ± 2	1441 ± 2	1461 ± 3
313.15 K, x2 = 0.4995	820.52 ± 1.1	1315 ± 2	1342 ± 2	1367 ± 2	1391 ± 2	1414 ± 2	1438 ± 2
313.15 K, x2 = 0.75	785.3 ± 1	1298 ± 2	1326 ± 2	1352 ± 2	1378 ± 2	1403 ± 2	1427 ± 2
323.15 K, x2 = 0	944.99 ± 1.2	1374 ± 2	1397 ± 3	1419 ± 3	1439 ± 3	1459 ± 3	1480 ± 3
323.15 K, x2 = 0.2491	864.36 ± 1.1	1311 ± 2	1337 ± 2	1361 ± 2	1385 ± 2	1408 ± 2	1429 ± 2
323.15 K, x2 = 0.4995	813.31 ± 1.1	1278 ± 2	1306 ± 2	1333 ± 2	1358 ± 2	1383 ± 2	1406 ± 2
323.15 K, x2 = 0.75	778.26 ± 1	1262 ± 2	1291 ± 2	1319 ± 2	1345 ± 2	1369 ± 2	1393 ± 2
333.15 K, x2 = 0	937.04 ± 1.2	1335 ± 2	1359 ± 3	1383 ± 3	1402 ± 3	1425 ± 3	1445 ± 3
333.15 K, x2 = 0.2491	856.85 ± 1.1	1274 ± 2	1300 ± 2	1326 ± 2	1350 ± 2	1374 ± 2	1396 ± 2
333.15 K, x2 = 0.4995	806.07 ± 1.1	1242 ± 2	1271 ± 2	1298 ± 2	1325 ± 2	1350 ± 2	1374 ± 2
333.15 K, x2 = 0.75	771.21 ± 1	1224 ± 2	1253 ± 2	1282 ± 2	1309 ± 2	1335 ± 2	1361 ± 2

c1ccc2c(c1)CCCC2 [1,2,3,4-tetrahydronaphthalene] + CCCCCCCCCC
Conditions	mass density, 100 kPa [kg/m3]	speed of sound, 100 kPa [m/s]	speed of sound, 5000 kPa [m/s]	speed of sound, 10000 kPa [m/s]	speed of sound, 15000 kPa [m/s]	speed of sound, 20000 kPa [m/s]	speed of sound, 25000 kPa [m/s]
313.15 K, x2 = 0	952.93 ± 1.2	1413 ± 2	1434 ± 3	1455 ± 3	1475 ± 3	1495 ± 3	1513 ± 3
313.15 K, x2 = 0.2501	877.12 ± 1.1	1331 ± 2	1356 ± 2	1380 ± 2	1402 ± 2	1424 ± 2	1445 ± 2
313.15 K, x2 = 0.5005	813.93 ± 1.1	1265 ± 2	1293 ± 2	1319 ± 2	1346 ± 2	1370 ± 2	1394 ± 2
313.15 K, x2 = 0.7502	760.5 ± 1	1214 ± 2	1244 ± 2	1273 ± 2	1302 ± 2	1329 ± 2	1354 ± 2
323.15 K, x2 = 0	944.99 ± 1.2	1374 ± 2	1397 ± 3	1419 ± 3	1439 ± 3	1459 ± 3	1480 ± 3
323.15 K, x2 = 0.2501	869.27 ± 1.1	1291 ± 2	1317 ± 2	1342 ± 2	1365 ± 2	1389 ± 2	1411 ± 2
323.15 K, x2 = 0.5005	806.15 ± 1.1	1228 ± 2	1255 ± 2	1283 ± 2	1310 ± 2	1336 ± 2	1361 ± 2
323.15 K, x2 = 0.7502	752.77 ± 1	1175 ± 2	1207 ± 2	1238 ± 2	1268 ± 2	1296 ± 2	1321 ± 2
333.15 K, x2 = 0	937.04 ± 1.2	1335 ± 2	1359 ± 3	1383 ± 3	1402 ± 3	1425 ± 3	1445 ± 3
333.15 K, x2 = 0.2501	861.39 ± 1.1	1254 ± 2	1281 ± 2	1306 ± 2	1331 ± 2	1356 ± 2	1379 ± 2
333.15 K, x2 = 0.5005	798.33 ± 1.1	1189 ± 2	1220 ± 2	1249 ± 2	1276 ± 2	1302 ± 2	1327 ± 2
333.15 K, x2 = 0.7502	744.98 ± 1	1137 ± 2	1174 ± 2	1204 ± 2	1234 ± 2	1263 ± 2	1292 ± 2
